These are literature values, as cited in patent US5561042A, “Diamine platinum naphthalimide complexes as antitumor agents” (Cancer Therapy and Research Center, priority 1995, dated 1996).

Each structure is given as a SMILES string.

Data set [1] has as its system SV40 DNA (Form I, negatively supercoiled). The note with it: comparison with compound 21; no own test described; cited from earlier work.
The conditions of data set [2]: cited from earlier work.
The subject of data set [3] is B16 melanoma. The conditions noted are these: cited from earlier work.
In data set [4] the test system is DLD-2 human colon adenocarcinoma. The note with it: in vivo; cited from earlier work.
Data set [5] has as its system MX-1 human breast carcinoma. The note with it: in vivo; cited from earlier work.

Take `N.N.[Cl][Pt][Cl]` [Cisplatin]: in data set [1], the “effect on DNA conformation (in words)” value is “does not show such an effect and causes unwinding only after prolonged incubation”.
For the compound `CS(=O)(=O)O.O=C1c2cccc3cc([N+](=O)[O-])cc(c23)C(=O)N1CCCCNCCCN1C(=O)c2cccc3cc([N+](=O)[O-])cc(c23)C1=O` [XB596], the water solubility in data set [2] was 45 µg/mL. Also, the “activity against B16 melanoma (in words)” value in data set [3] is recorded as “ineffective against B16 melanoma”. Further, the “anti-tumor activity, DLD-2 (in words)” value in data set [4] is listed as “demonstrated in vivo anti-tumor activity”. The “anti-tumor activity, MX-1 (in words)” value in data set [5] is “demonstrated in vivo anti-tumor activity”.
